Where “and” joins values, the source holds several entries; their conditions need not be identical. Equal values may be shown once. ± gives the expanded uncertainty stated by the source.
Legend:
[1] = molar heat capacity at constant pressure; details: Liquid, Large sample (1 g) DSC
[2] = molar heat capacity at constant pressure; xn = mol fraction of the nth substance listed; details: 100 kPa, Liquid, Large sample (1 g) DSC, x1 = 0.38

Question: What does the source list for CCC [propane]?
Answer: molar heat capacity at constant pressure ([1]; 108.15 K, 1160 kPa): 84.97 ± 2.1 J/K/mol; molar heat capacity at constant pressure ([1]; 108.15 K, 3680 kPa): 86.69 ± 2.1 J/K/mol; molar heat capacity at constant pressure ([1]; 108.15 K, 5160 kPa): 86.65 ± 2.2 J/K/mol; molar heat capacity at constant pressure ([1]; 108.15 K, 5330 kPa): 84.8 ± 2.2 J/K/mol; molar heat capacity at constant pressure ([1]; 118.15 K, 1170 kPa): 84.75 ± 2.1 J/K/mol; molar heat capacity at constant pressure ([1]; 118.15 K, 3650 kPa): 87.09 ± 2.1 J/K/mol; molar heat capacity at constant pressure ([1]; 118.15 K, 5180 kPa): 87.04 ± 2.2 J/K/mol; molar heat capacity at constant pressure ([1]; 118.15 K, 5430 kPa): 85.46 ± 2.2 J/K/mol; molar heat capacity at constant pressure ([1]; 128.15 K, 1180 kPa): 85.28 ± 2.1 J/K/mol; molar heat capacity at constant pressure ([1]; 128.15 K, 3640 kPa): 86.65 ± 2.1 J/K/mol; molar heat capacity at constant pressure ([1]; 128.15 K, 3670 kPa): 86.3 ± 2.1 J/K/mol; molar heat capacity at constant pressure ([1]; 128.15 K, 5190 kPa): 86.56 ± 2.2 J/K/mol; molar heat capacity at constant pressure ([1]; 128.15 K, 5430 kPa): 85.55 ± 2.1 J/K/mol; molar heat capacity at constant pressure ([1]; 143.15 K, 1130 kPa): 86.43 ± 2.1 J/K/mol; molar heat capacity at constant pressure ([1]; 143.15 K, 3690 kPa): 86.69 ± 2.1 J/K/mol; molar heat capacity at constant pressure ([1]; 143.15 K, 5180 kPa): 86.56 ± 2.1 J/K/mol; molar heat capacity at constant pressure ([1]; 153.15 K, 1190 kPa): 87.62 ± 2.2 J/K/mol; molar heat capacity at constant pressure ([1]; 153.15 K, 5200 kPa): 88.68 ± 2.2 J/K/mol; molar heat capacity at constant pressure ([1]; 163.15 K, 1170 kPa): 87.97 ± 2.2 J/K/mol; molar heat capacity at constant pressure ([1]; 163.15 K, 5210 kPa): 89.34 ± 2.2 J/K/mol; molar heat capacity at constant pressure ([1]; 188.15 K, 1190 kPa): 91.15 ± 2.2 J/K/mol; molar heat capacity at constant pressure ([1]; 188.15 K, 5220 kPa): 91.1 ± 2.2 J/K/mol; molar heat capacity at constant pressure ([1]; 228.15 K, 1150 kPa): 98.73 ± 2.4 J/K/mol; molar heat capacity at constant pressure ([1]; 228.15 K, 3670 kPa): 98.42 ± 2.4 J/K/mol; molar heat capacity at constant pressure ([1]; 228.15 K, 5220 kPa): 98.11 ± 2.4 J/K/mol; molar heat capacity at constant pressure ([1]; 238.15 K, 1110 kPa): 101.24 ± 2.5 J/K/mol; molar heat capacity at constant pressure ([1]; 238.15 K, 3680 kPa): 100.71 ± 2.5 J/K/mol; molar heat capacity at constant pressure ([1]; 238.15 K, 5220 kPa): 100.63 ± 2.5 J/K/mol; molar heat capacity at constant pressure ([1]; 248.15 K, 1160 kPa): 103.58 ± 2.6 J/K/mol; molar heat capacity at constant pressure ([1]; 248.15 K, 3670 kPa): 102.17 ± 2.5 J/K/mol; molar heat capacity at constant pressure ([1]; 248.15 K, 5190 kPa): 101.46 ± 2.5 J/K/mol; molar heat capacity at constant pressure ([1]; 258.15 K, 1160 kPa): 105.65 ± 2.6 J/K/mol; molar heat capacity at constant pressure ([1]; 258.15 K, 3680 kPa): 104.11 ± 2.6 J/K/mol; molar heat capacity at constant pressure ([1]; 258.15 K, 5220 kPa): 103.76 ± 2.6 J/K/mol

Question: What does the source list for CC [ethane]?
Answer: molar heat capacity at constant pressure ([1]; 108.15 K, 1050 kPa): 67.9 ± 1.7 J/K/mol; molar heat capacity at constant pressure ([1]; 108.15 K, 2020 kPa): 67.87 ± 1.7 J/K/mol; molar heat capacity at constant pressure ([1]; 108.15 K, 4290 kPa): 67.78 ± 1.7 J/K/mol; molar heat capacity at constant pressure ([1]; 118.15 K, 1060 kPa): 68.26 ± 1.7 J/K/mol; molar heat capacity at constant pressure ([1]; 118.15 K, 2030 kPa): 67.63 ± 1.7 J/K/mol; molar heat capacity at constant pressure ([1]; 118.15 K, 4290 kPa): 68.95 ± 1.7 J/K/mol; molar heat capacity at constant pressure ([1]; 128.15 K, 4310 kPa): 68.65 ± 1.7 J/K/mol; molar heat capacity at constant pressure ([1]; 143.15 K, 4080 kPa): 68.62 ± 1.7 J/K/mol; molar heat capacity at constant pressure ([1]; 153.15 K, 4070 kPa): 69.94 ± 1.7 J/K/mol; molar heat capacity at constant pressure ([1]; 163.15 K, 4050 kPa): 70.84 ± 1.7 J/K/mol; molar heat capacity at constant pressure ([1]; 188.15 K, 1120 kPa): 73.46 ± 1.8 J/K/mol; molar heat capacity at constant pressure ([1]; 188.15 K, 4310 kPa): 72.41 ± 1.8 J/K/mol; molar heat capacity at constant pressure ([1]; 228.15 K, 1170 kPa): 81.04 ± 2 J/K/mol; molar heat capacity at constant pressure ([1]; 228.15 K, 4320 kPa): 80.07 ± 2 J/K/mol; molar heat capacity at constant pressure ([1]; 238.15 K, 1210 kPa): 83.71 ± 2 J/K/mol; molar heat capacity at constant pressure ([1]; 238.15 K, 4330 kPa): 82.72 ± 2 J/K/mol

Question: For Cc1ccccc1 [toluene] + CCCCCCC, which “molar heat capacity at constant pressure” value ([2]; 228.15 K) is on record?
Answer: 166.3 ± 4.1 J/K/mol

Question: What about the “molar heat capacity at constant pressure” value ([2]; 238.15 K) of the same compound?
Answer: 168.05 ± 4.1 J/K/mol

Question: And the “molar heat capacity at constant pressure” value ([2]; 303.15 K)?
Answer: 185.24 ± 4.6 J/K/mol

Question: What about the “molar heat capacity at constant pressure” value ([2]; 313.15 K) of the same compound?
Answer: 189.52 ± 4.7 J/K/mol

Question: Which “molar heat capacity at constant pressure” value ([1]; 228.15 K, 100 kPa) does the source give for Cc1ccccc1 [toluene] here?
Answer: 138.39 ± 3.4 J/K/mol and 139.13 ± 3.4 J/K/mol

Question: And the “molar heat capacity at constant pressure” value ([1]; 238.15 K, 100 kPa)?
Answer: 140.79 ± 3.4 J/K/mol and 140.97 ± 3.5 J/K/mol

Question: What about the “molar heat capacity at constant pressure” value ([1]; 303.15 K, 100 kPa) of the same compound?
Answer: 159.03 ± 3.9 J/K/mol and 157.65 ± 3.9 J/K/mol

Question: What about the “molar heat capacity at constant pressure” value ([1]; 313.15 K, 100 kPa) of the same compound?
Answer: 162.35 ± 4 J/K/mol and 161.98 ± 4 J/K/mol

Question: With C [methane] as the compound, how does the “molar heat capacity at constant pressure” value ([1]; 108.15 K, 4230 kPa) read?
Answer: 54.4 ± 1.3 J/K/mol

Question: And the “molar heat capacity at constant pressure” value ([1]; 108.15 K, 6300 kPa)?
Answer: 54.11 ± 1.3 J/K/mol

Question: And the “molar heat capacity at constant pressure” value ([1]; 118.15 K, 4270 kPa)?
Answer: 55.54 ± 1.4 J/K/mol

Question: What about the “molar heat capacity at constant pressure” value ([1]; 118.15 K, 6350 kPa) of the same compound?
Answer: 55.11 ± 1.4 J/K/mol

Question: What about the “molar heat capacity at constant pressure” value ([1]; 128.15 K, 4330 kPa) of the same compound?
Answer: 57.03 ± 1.4 J/K/mol

Question: And the “molar heat capacity at constant pressure” value ([1]; 128.15 K, 6400 kPa)?
Answer: 56.66 ± 1.4 J/K/mol

Question: And the “molar heat capacity at constant pressure” value ([1]; 143.15 K, 4350 kPa)?
Answer: 59.37 ± 1.5 J/K/mol

Question: What about the “molar heat capacity at constant pressure” value ([1]; 153.15 K, 4340 kPa) of the same compound?
Answer: 63.24 ± 1.6 J/K/mol

Question: And the “molar heat capacity at constant pressure” value ([1]; 153.15 K, 6340 kPa)?
Answer: 60.98 ± 1.5 J/K/mol

Question: And the “molar heat capacity at constant pressure” value ([1]; 163.15 K, 4390 kPa)?
Answer: 67.7 ± 1.8 J/K/mol

Question: And the “molar heat capacity at constant pressure” value ([1]; 163.15 K, 6470 kPa)?
Answer: 64.51 ± 1.7 J/K/mol

Question: What about the “molar heat capacity at constant pressure” value ([1]; 173.15 K, 4380 kPa) of the same compound?
Answer: 77.87 ± 2.2 J/K/mol

Question: And the “molar heat capacity at constant pressure” value ([1]; 173.15 K, 6450 kPa)?
Answer: 70.97 ± 1.9 J/K/mol

Question: For CCCCCCC [heptane], which “molar heat capacity at constant pressure” value ([1]; 228.15 K, 100 kPa) is on record?
Answer: 202.31 ± 4.9 J/K/mol and 201.51 ± 4.9 J/K/mol

Question: What about the “molar heat capacity at constant pressure” value ([1]; 238.15 K, 100 kPa) of the same compound?
Answer: 206.22 ± 5 J/K/mol and 205.11 ± 5 J/K/mol

Question: And the “molar heat capacity at constant pressure” value ([1]; 303.15 K, 100 kPa)?
Answer: 225.96 ± 5.5 J/K/mol and 225.25 ± 5.5 J/K/mol

Question: And the “molar heat capacity at constant pressure” value ([1]; 313.15 K, 100 kPa)?
Answer: 229.16 ± 5.6 J/K/mol and 230.87 ± 5.6 J/K/mol

Reference: the NIST ThermoML archive (doi:10.1021/je300762m)
